Assay results from patent US9284368B2, “Substituted pyrazines as cadherin-11 inhibitors” (Georgetown University, priority 2009, dated 2016).
“Also recorded” adds a separate entry of the source.

Columns and labels:
MCF7 breast cancer cells [1] = assay: Matrigel outgrowth (invasion) assay; type: cell-based; settings: MCF7 breast cancer cells (expressing E and P-cadherin), 1 μM and 10 μM
Protocol: (§1) Upon finding significant differences in growth and migration in cancer cells with reduced cadherin-11 expression, invasive capability of the stable cell lines was explored in a 3-dimensional matrix. The cells were plated in duplicate in a 12-well glass-bottom dish (MatTek; Ashland, Mass.) coated with 150 μL of Matrigel (BD Biosciences; San Jose, Calif.). The cells (5,000 cells/100 μl medium) were gently plated on top of the Matrigel layer directly and incubated 30 min at 37° C. Growth medium (1 mL) was gently added to each well, and growth was visualized using a 5× objective on an AH2 Vanox inverted microscope (Olympus; Tokyo, JP) equipped with a CCD camera.
(§2) Cells (5,000 cells/100 μl medium) were plated atop 150 μL layer of Matrigel (BD Biosciences; San Jose, Calif.) in duplicate in 12-well glass-bottom dishes (MatTek; Ashland, Mass.) and incubated for 30 minutes at 37° C. Growth medium (1 mL) was gently added to each well. Growth was visualized using a 5× objective on AH2 Vanox inverted microscope (Olympus; Tokyo, JP).

[2] = system: MDA-MB-231 breast cancer cells; assay: Matrigel outgrowth (invasion) assay; type: cell-based; settings: MDA-MB-231 cells, 100 nM
Protocol: as §1, §2

[3] = system: MDA-MB-435 melanoma cells; assay: Matrigel outgrowth (invasion) assay; type: cell-based; settings: MDA-MB-435 melanoma cells (expressing N-cadherin), 1 μM and 10 μM
Protocol: as §1, §2

[4] = In vivo acute toxicity (OECD Up-and-Down Procedure); settings: mouse, female Balb/c mice, IP injection, observed for 14 days
Protocol: Female Balb/c mice, 8-12 weeks old, were obtained from the National Cancer Institute (Bethesda, Md.). A stock solution of 200 mg/ml of Compound 1 was prepared with a 1:1 ratio of DMSO and PEG. The working solution was diluted with PEG. Compound 1 (Sd-133) was administered at a constant volume (0.01 ml/1 g body weight) over the range of doses to be tested by varying the concentration of the dosing preparation according to the OECD Acute Toxicity-Up-and Down Procedure. […] Observations included toxicity onset time, symptoms, duration and the time elapsed for recovery or death. Based on the study, the LD50 of Compound 1 was estimated at 2000 mg/kg.

[5] = system: MDA-MB-231 breast cancer cells; assay: Soft agar colony growth assay; type: cell-based; settings: MDA-MB-231 cells, 100 nM
Protocol: To further characterize proliferative ability of cancer cells lacking cadherin-11, anchorage independent growth was studied in the stable cell lines. 6-well tissue culture dishes were coated with 1.2 mL 0.6% Bacto-agar (Difco; Franklin Lakes, N.J.) in DMEM supplemented with 5% fetal bovine serum. Once set, the cells were plated in triplicate in 0.3% agar (15,000/1 mL in each well) and layered gently on top of the coated agar. The plates were incubated for 10 days to 2 weeks prior to reading using a colony counter (Omnicon; Manassas, Va.) and visualized using a SMZ-1500 stereoscope (Nikon; Tokyo, JP).
(§3) For luminescence, the cells were plated in triplicate in 24-well white-walled tissue culture dishes (Wallac; Waltham, Mass.) as described above. On the final day, cells were resuspended in an equal volume of Cell-Titer-Glo Luminescence Reagent (Promega; Madison, Wis.), which measures ATP, and incubated for 20 min at room temperature. The assay was measured using luminescence.
Cells (5,000) were plated in 0.3% agar layered on top of 0.6% agar in 35-mm^2 plates. After 2 weeks, the colonies were counted in an Omnicon 3600 automated colony counter (BioLogics, Inc.; Manassas, Va.) and visualized using a SMZ-1500 stereoscope (Nikon; Tokyo, JP). Confirmation assays were completed in 24-well dishes and analyzed using Cell-Titer-Glo Reagent (see proliferation assays).

MCF7 breast cancer cells [6] = assay: Proliferation assay; type: cell-based; settings: MCF7 breast cancer cells (expressing E and P-cadherin), 1 μM and 10 μM
Protocol: (§4) For crystal violet assays, cells were plated in triplicate in 96-well tissue culture dishes at 4 separate densities. Cells were grown in DMEM supplemented with 5% fetal bovine serum for a period of 5 days. Dishes representing growth were stained with crystal violet on Days 1, 3 and 5 after plating, by removing growth medium, staining with 50 μL of crystal violet stain for 10 min, then gently washing in dH2O and allowing to dry overnight. Stained cells were solubilized in 100 μL 50/50 (v/v) 0.1M sodium citrate and ethanol for 15 min, and absorbance was read at 630λ.
as §3, with “and grown in DMEM supplemented with 5% fetal bovine serum for 5 days.” for “as described above.”, “fifth” for “final”, “day, the” for “day,”
(§5) Cells were plated in triplicate at four separate densities and grown in DMEM with 5% FBS for five days. Cells were stained with crystal violet on days 1, 3, and 5 after plating, as described in Example 5. Absorbance was read at 630λ using a BioRad Ultramark Microplate Imaging System with Microplate Manager 5.1 software. […]

[7] = system: MDA-MB-435 melanoma cells; assay: Proliferation assay; type: cell-based; settings: MDA-MB-435 melanoma cells (expressing N-cadherin), 1 μM and 10 μM
Protocol: as §4
as §3, with “and grown in DMEM supplemented with 5% fetal bovine serum for 5 days.” for “as described above.”, “fifth” for “final”, “day, the” for “day,”
as §5

Cytotoxicity in vitro = type: cell-based; settings: up to a 100 μM dosage in vitro
[8] = system: MDA-MB-231 breast cancer cells; assay: Proliferation assay (crystal violet / luminescence); type: cell-based; settings: MDA-MB-231 cells, 100 nM
Protocol: as §4
as §3, with “and grown in DMEM supplemented with 5% fetal bovine serum for 5 days.” for “as described above.”, “fifth” for “final”, “day, the” for “day,”
as §5

nude mice = assay: Pilot toxicity study in nude mice; type: in vivo
[9] = system: PC-3 prostate cancer cells; assay: Growth phenotypes in PC-3 cells; type: cell-based
cadherin-11 = biological target: T1, cadherin-11 (Homo sapiens, UniProt P55287); assay: Initial functional screening of in silico hits for block of cadherin-11 function; type: cell-based; settings: in vitro screening of commercially purchased in silico hits
T1 construct: Endogenous cadherin-11 expression in MDA-MB-231 breast and PC-3 prostate cancer cells was knocked down; endogenous in cells; host or cells: MDA-MB-231 breast cancer cells (PC-3 partly)
T1 sequence (P55287 54-796): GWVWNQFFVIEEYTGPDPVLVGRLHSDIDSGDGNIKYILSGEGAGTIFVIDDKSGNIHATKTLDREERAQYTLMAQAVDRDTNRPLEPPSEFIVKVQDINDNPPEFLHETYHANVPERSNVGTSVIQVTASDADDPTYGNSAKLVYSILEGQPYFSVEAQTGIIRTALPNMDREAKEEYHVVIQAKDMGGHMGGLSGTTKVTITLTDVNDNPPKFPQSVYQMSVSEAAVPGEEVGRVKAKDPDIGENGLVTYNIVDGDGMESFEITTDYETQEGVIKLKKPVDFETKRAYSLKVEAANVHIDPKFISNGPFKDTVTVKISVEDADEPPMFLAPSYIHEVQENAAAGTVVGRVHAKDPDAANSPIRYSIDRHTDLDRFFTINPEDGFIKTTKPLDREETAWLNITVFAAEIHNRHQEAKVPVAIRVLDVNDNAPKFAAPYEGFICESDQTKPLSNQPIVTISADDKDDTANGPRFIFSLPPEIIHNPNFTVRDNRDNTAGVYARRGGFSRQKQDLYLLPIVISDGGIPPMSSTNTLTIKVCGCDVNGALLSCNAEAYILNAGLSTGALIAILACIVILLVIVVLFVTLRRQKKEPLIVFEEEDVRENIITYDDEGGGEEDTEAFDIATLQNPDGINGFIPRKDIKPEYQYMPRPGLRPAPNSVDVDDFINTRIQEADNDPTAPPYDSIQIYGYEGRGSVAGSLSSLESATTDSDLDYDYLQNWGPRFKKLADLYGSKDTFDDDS
Protocol: These two pharmacophores were further refined and screened again to maximize solubility and then retested using various in vitro assays. […] Finally, it was also observed that the compound was not cytotoxic up to a 100 μM dosage in vitro, as well as a pilot study in nude mice.
Cadherin-11 association with certain poor prognosis cancers, proliferation of basal-type breast cancer cells, and tumorigenesis in mice make it a viable therapeutic target for these malignancies. […] A computer-based method of structural modeling was used to predict conformations capable of binding these specific hydrophobic pockets. The ectodomain1 (EC1) dimer adhesive interface is formed by exchange of N-terminal β strands between two cadherin-11 molecules. The dimer interface has a large hydrophobic region (unique to type II cadherins) with two conserved tryptophan residues. […] This structure was used to base molecular simulations and produce pharmacophores designed to block one or both of the two adjacent regions (P1 and P2) predicted necessary for cadherin-11 function in cell-cell adhesion. Three in-silico strategies were implemented: 1) generation of flexible receptor conformations, 2) receptor-based dynamic pharmacophore screening and 3) small molecule docking simulations. The 29 most promising candidates identified by in silico screen were subjected to free energy simulations at 100 picosecond intervals, taking into consideration the induced fit effect, which accounts for conformation flexibility both before and after binding/docking simulations. […] These 29 compounds were purchased commercially and tested. Many of the compounds initially screened inhibited cadherin-11 function at 10 μM range, attesting to the in silico screening efficiency. […] The potency of Compound 1 likely stems from its shape and moderate structural flexibility, enabling it to accommodate to and bind tightly within the tryptophan binding pocket. Though this pocket is largely hydrophobic, a network of hydrogen bonds between Compound 1 and R23, H25, P88, S90 confers specificity and rigid binding. […]

[10] = system: L-cells with stably-transfected empty vector; assay: Cell aggregation assay, empty vector L-cells; type: cell-based; settings: shaken one hour at 100 rpm
Protocol: (§6) Cell aggregation assays were performed on L-cells with stably-transfected empty vector or cadherin-11. The cells were seeded and grown overnight, trypsinized with additional EDTA, resuspended in DMEM with 20% FBS, and counted. The cells were spun down and resuspended in DMEM containing no treatment, 0.5 mM EDTA, 0.25 mM EDTA, 0.1 mM EDTA, or cadherin-11 inhibitors including 1 TM of Compound 1 (Sd-133), 1 TM of Compound 2 (Sd-133A), 1 TM of Compound 3 (Sd-133B), 1 TM of Compound 11 (Sd-12), 1 TM of Compound 12 (Sd-48), 1 TM of Compound 17 (Sd-20), 1 TM of Compound 18 (Sd-51), 1 TM of Compound 19 (Sd-22), or 1 TM of Compound 20 (Sd-23). The cells were allowed to recover for one hour and were then put into uncoated 12 well plates and shaken for one hour at 100 rpm at 2.25×10^5 cells/mL. The cells were then counted using Microsizer Coulter Counter (Beckman Coulter, Inc; Brea, Calif.). Counts over 20 uM in length were considered aggregates, while counts below 20 uM were considered as single cells. The counts were confirmed by manual counting.

[11] = system: L-cells with stably-transfected cadherin-11; assay: Cell aggregation assay, cadherin-11 transfected L-cells; type: cell-based; settings: cadherin-11 L-cells, shaken one hour at 100 rpm
Protocol: as §6

## Oc1ccc(-c2cccnc2-c2ccccc2)cc1 [Compound 1]
MCF7 breast cancer cells [1]
  invasion: fails to block; also recorded: failed to alter
[2]
  invasion: significantly blocked; also recorded: significantly inhibited
[3]
  invasion: fails to block; also recorded: failed to alter
[4]
  LD50 at 14 days: 2000 mg/kg
[5]
  colony growth: significantly blocked; also recorded: significantly inhibited
MCF7 breast cancer cells [6]
  proliferation: fails to block; also recorded: failed to alter
[7]
  proliferation: fails to block; also recorded: failed to alter
Cytotoxicity in vitro
  cytotoxicity: not cytotoxic
[8]
  cell proliferation: significantly blocked; also recorded: significantly inhibited
Nude mice
  cytotoxicity: not cytotoxic
[9]
  growth phenotypes: partially inhibited
cadherin-11
  concentration range at which cadherin-11 is functionally blocked (effective range): nanomolar ranges

## Oc1ccc(-c2nc3ccccc3nc2-c2cccc(Cl)c2)cc1 [Compound 2]
[10]
  aggregate formation: remained stable
[11]
  aggregate formation: decrease

## Oc1ccc(-c2nc3ccccc3nc2-c2ccccc2)cc1 [Compound 3]
[10]
  aggregate formation: remained stable
[11]
  aggregate formation: decrease

## O=C1c2ccccc2C(=O)c2c1oc1ccc3ccccc3c21 [Compound 9]
cadherin-11
  concentration range at which cadherin-11 is functionally blocked (effective range): nanomolar ranges

## Oc1ccc2c(c1)c1ccccc1c1ncccc21 [Compound 10]
cadherin-11
  concentration range at which cadherin-11 is functionally blocked (effective range): nanomolar ranges
